Test results from patent US20090311217A1, “3-SUBSTITUTED-1H-INDOLE COMPOUNDS, THEIR USE AS MTOR KINASE AND PI3 KINASE INHIBITORS, AND THEIR SYNTHESES” (priority 2008, published 2009).
Like-named read-outs stand apart in the source and are kept apart here.

Tests used:
Format in all cases: biochemical
human TOR = molecular target: T1, human TOR (Homo sapiens, UniProt P42345); assay: mTOR enzyme assay (DELFIA, His6-S6K substrate); details: read-out: mTOR Kinase Avg. IC50
T1 construct: FLAG

PI3K-gamma = PI3K-gamma (Homo sapiens, UniProt P48736); assay: PI3K-gamma fluorescence polarization assay
Summary of the method: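 FP displacement read-out: 100 nM GST-GRP1 PH domain plus 5 nM BODIPY-TMR-IP4 added after EDTA stop. Preceding kinase step: 5 ng enzyme, diC8-PI(4,5)P2 2.5 μM, ATP 25 μM, MgCl2 2.5 mM, HEPES 5 mM pH 7, one hour, 25° C.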

PI3K-alpha = PI3K-alpha (Homo sapiens, UniProt P42336); assay: PI3K-alpha fluorescence polarization assay; details: read-out: PI3Kα Avg. IC50
Chain of PI3K-alpha (P42336 whole entry, species assumed): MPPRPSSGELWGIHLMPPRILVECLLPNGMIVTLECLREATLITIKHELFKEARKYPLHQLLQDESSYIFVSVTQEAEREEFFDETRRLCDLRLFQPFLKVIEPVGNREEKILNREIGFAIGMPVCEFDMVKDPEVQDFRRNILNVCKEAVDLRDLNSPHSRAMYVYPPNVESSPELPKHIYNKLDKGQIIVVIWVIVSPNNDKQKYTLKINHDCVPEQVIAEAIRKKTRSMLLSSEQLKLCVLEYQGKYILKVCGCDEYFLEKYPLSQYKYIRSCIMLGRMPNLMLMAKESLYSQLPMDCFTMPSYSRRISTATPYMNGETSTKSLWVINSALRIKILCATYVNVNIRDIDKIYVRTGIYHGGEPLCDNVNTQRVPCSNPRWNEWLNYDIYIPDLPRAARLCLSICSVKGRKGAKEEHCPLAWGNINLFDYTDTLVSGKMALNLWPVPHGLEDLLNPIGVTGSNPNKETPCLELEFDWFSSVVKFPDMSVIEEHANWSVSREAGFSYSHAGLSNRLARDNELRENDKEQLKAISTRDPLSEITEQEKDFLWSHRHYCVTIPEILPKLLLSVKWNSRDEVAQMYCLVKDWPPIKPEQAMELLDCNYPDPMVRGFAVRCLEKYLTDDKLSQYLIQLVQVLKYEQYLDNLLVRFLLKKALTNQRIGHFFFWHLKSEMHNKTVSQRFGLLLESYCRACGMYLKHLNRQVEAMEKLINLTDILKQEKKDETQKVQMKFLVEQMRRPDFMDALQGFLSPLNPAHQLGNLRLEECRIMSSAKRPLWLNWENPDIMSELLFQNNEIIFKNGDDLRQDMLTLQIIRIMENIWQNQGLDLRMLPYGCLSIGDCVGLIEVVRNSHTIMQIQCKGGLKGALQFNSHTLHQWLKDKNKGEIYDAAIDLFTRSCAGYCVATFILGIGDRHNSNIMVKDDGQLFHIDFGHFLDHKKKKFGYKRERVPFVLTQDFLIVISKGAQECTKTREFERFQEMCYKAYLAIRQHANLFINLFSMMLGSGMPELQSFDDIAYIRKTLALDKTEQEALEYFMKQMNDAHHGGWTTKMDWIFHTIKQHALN
Chain of PI3K-alpha (P27986 whole entry partner, species assumed): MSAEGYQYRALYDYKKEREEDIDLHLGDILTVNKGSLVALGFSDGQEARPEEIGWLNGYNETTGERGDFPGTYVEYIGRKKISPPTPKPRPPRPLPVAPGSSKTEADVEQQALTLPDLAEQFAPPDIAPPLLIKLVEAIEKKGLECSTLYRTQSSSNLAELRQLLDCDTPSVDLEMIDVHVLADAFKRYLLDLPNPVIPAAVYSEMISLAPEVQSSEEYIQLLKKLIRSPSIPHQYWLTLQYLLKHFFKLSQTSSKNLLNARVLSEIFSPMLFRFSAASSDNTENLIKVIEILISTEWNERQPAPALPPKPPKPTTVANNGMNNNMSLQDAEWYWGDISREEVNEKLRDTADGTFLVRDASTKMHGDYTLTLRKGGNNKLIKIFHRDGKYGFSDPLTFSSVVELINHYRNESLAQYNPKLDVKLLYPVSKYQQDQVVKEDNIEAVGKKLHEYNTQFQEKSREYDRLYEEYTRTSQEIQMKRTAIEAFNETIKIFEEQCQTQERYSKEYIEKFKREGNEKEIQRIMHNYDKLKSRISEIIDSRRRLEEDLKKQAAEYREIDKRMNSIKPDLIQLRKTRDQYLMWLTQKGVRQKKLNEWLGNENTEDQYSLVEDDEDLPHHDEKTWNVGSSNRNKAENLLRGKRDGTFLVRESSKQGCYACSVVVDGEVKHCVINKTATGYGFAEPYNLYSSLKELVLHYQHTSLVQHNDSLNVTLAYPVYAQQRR

Chain of PI3K-gamma (P48736 whole entry, species assumed, the tested form may be a part): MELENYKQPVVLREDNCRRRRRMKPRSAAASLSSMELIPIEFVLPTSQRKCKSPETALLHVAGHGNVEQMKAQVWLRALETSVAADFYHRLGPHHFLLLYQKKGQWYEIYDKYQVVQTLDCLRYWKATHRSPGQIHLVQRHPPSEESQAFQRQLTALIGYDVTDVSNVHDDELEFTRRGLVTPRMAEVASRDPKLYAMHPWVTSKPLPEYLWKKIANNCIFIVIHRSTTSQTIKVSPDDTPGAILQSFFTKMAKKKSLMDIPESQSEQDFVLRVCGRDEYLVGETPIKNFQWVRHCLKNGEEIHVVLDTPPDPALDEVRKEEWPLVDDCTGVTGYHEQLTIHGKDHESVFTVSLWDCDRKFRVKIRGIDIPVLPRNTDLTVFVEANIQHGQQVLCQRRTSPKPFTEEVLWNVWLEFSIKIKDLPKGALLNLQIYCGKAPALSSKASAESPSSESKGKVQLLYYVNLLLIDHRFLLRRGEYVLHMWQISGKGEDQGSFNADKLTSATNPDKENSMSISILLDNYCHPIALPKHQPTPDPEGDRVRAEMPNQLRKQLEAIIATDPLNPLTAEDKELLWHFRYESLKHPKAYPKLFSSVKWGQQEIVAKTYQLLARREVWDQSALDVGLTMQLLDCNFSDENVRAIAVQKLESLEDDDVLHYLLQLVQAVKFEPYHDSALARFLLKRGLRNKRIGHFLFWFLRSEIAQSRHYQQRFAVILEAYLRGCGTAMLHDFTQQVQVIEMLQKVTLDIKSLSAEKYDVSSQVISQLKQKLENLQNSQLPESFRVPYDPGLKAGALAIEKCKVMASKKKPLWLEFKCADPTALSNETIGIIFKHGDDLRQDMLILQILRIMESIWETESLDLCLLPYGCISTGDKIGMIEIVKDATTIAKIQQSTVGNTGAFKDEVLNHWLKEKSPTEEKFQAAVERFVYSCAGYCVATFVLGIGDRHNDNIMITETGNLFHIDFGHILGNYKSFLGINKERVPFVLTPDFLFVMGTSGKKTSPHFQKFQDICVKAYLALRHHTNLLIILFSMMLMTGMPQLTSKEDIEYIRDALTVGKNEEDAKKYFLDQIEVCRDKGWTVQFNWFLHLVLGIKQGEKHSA

| Compound | IC50 (human TOR) | IC50 (PI3K-gamma; PI3Kγ Avg. IC50) | IC50 (PI3K-alpha) | IC50 (PI3K-gamma; read-out: PI3Kγ Avg. IC50) |
| --- | --- | --- | --- | --- |
| CCn1c(C)c(/C=C2\Oc3ccc(NC(=O)Nc4ccc(C(=O)N5CCC(N(C)C)CC5)cc4)cc3C2=O)c2cc(OC)ccc21 [Compound 650, 1-(4-{[4-(dimethylamino)piperidin-1-yl]carbonyl}phenyl)-3-{(2Z)-2-[(1-ethyl-5-methoxy-2-methyl-1H-indol-3-yl)methylene]-3-oxo-2,3-dihydro-1-benzofuran-5-yl}urea] | 31 nM | 3 nM | 0.4 nM | – |
| COc1ccc2c(c1)c(/C=C1\Oc3ccc(NC(=O)Nc4ccc(N(C)C(=O)CCN(C)C)cc4)cc3C1=O)c(C)n2CCN1CCN(C)CC1 [Compound 695, N-[4-({[(2Z)-2-({5-methoxy-2-methyl-1-[2-(4-methylpiperazin-1-yl)ethyl]-1H-indol-3-yl}methylidene)-3-oxo-2,3-dihydro-1-benzofuran-5-yl]carbamoyl}amino)phenyl]-N,N3,N3-trimethyl-b-alaninamide] | 330 nM | > 5500 nM | 4 nM | – |
| CNC(=O)Nc1ccc2c(c1)C(=O)/C(=C/c1c(C(C)(C)C)[nH]c3ccc(OC)cc13)O2 [Compound 631, 1-{(2Z)-2-[(2-tert-butyl-5-methoxy-1H-indol-3-yl)methylidene]-3-oxo-2,3-dihydro-1-benzofuran-5-yl}-3-methylurea] | 2 nM | 54.5 nM | 5 nM | – |
| CNC(=O)Nc1ccc2c(c1)C(=O)/C(=C/c1c(-c3nn(C)cc3C(F)(F)F)[nH]c3ccc(OC)cc13)O2 [Compound 724, 1-[(2Z)-2-({5-methoxy-2-[1-methyl-4-(trifluoromethyl)-1H-pyrazol-3-yl]-1H-indol-3-yl}methylidene)-3-oxo-2,3-dihydro-1-benzofuran-5-yl]-3-methylurea] | 20 nM | 30.7 nM | 4.7 nM | – |
| COc1ccc2c(c1)c(/C=C1\Oc3cc(O)c(F)cc3C1=O)c(C)n2CCCN(C)C [Example 352, (2Z)-2-({1-[3-(Dimethylamino)propyl]-5-methoxy-2-methyl-1H-indol-3-yl}methylene)-5-fluoro-6-hydroxy-1-benzofuran-3(2H)-one] | > 800 nM | 3930 nM | 116 nM | – |
| COc1ccc2c(c1)c(/C=C1\Oc3cc(O)ccc3C1=O)cn2CCCN(C)C [Example 324, (2Z)-2-({1-[3-(Dimethylamino)propyl]-5-methoxy-1H-indol-3-yl}methylene)-6-hydroxy-1-benzofuran-3(2H)-one] | 365 nM | 656 nM | 91.5 nM | – |
| Cn1cc(/C=C2\Oc3cc(O)cc(O)c3C2=O)c2c(-c3ccc(NC(=O)N4CCOCC4)cc3)cccc21 [Example 404, N-(4-{3-[(Z)-(4,6-dihydroxy-3-oxo-1-benzofuran-2(3H)-ylidene)methyl]-1-methyl-1H-indol-4-yl}phenyl)morpholine-4-carboxamide] | 61 nM | 1650 nM | 935 nM | – |
| O=C1C(=Cc2c(-c3ccccc3)n(CCN3CCOCC3)c3ccccc23)Oc2cc(O)cc(O)c21 [Example 147, 4,6-dihydroxy-2-{[1-(2-morpholin-4-ylethyl)-2-phenyl-1H-indol-3-yl]methylene}-1-benzofuran-3(2H)-one] | 1080 nM | 6000 nM | 2450 nM | – |
| COc1ccc2c(c1)c(/C=C1\Oc3cc(O)cc(O)c3C1=O)c(C1CCCC1)n2CCN1CCN(C)CC1 [Example 410, (2Z)-2-({2-cyclopentyl-5-methoxy-1-[2-(4-methylpiperazin-1-yl)ethyl]-1H-indol-3-yl}methylene)-4,6-dihydroxy-1-benzofuran-3(2H)-one] | 0.64 nM | 116 nM | 3 nM | – |
| O=C1C(=Cc2c(-c3ccncc3)[nH]c3ccccc23)Oc2cc(O)cc(O)c21 [Example 203, 4,6-dihydroxy-2-[(2-pyridin-4-yl-1H-indol-3-yl)methylene]-1-benzofuran-3(2H)-one] | 150 nM | 6620 nM | 1410 nM | – |
| CNC(=O)Nc1ccc2c(c1)C(=O)/C(=C/c1c(-c3cnn(CC(C)C)c3)[nH]c3ccc(OC)cc13)O2 [Compound 706, 1-[(2Z)-2-({5-methoxy-2-[1-(2-methylpropyl)-1H-pyrazol-4-yl]-1H-indol-3-yl}methylidene)-3-oxo-2,3-dihydro-1-benzofuran-5-yl]-3-methylurea] | 10 nM | 10 nM | 1.3 nM | – |
| Cn1c(-c2ccc(O)cc2)c(C=C2Oc3cc(O)cc(O)c3C2=O)c2ccccc21 [Example 193, 4,6-dihydroxy-2-{[2-(4-hydroxyphenyl)-1-methyl-1H-indol-3-yl]methylene}-1-benzofuran-3(2H)-one] | 85 nM | 7660 nM | 1120 nM | – |
| O=C1C(=Cc2c[nH]c3ccc(F)cc23)Oc2cc(O)cc(O)c21 [Example 175, 2-[(5-fluoro-1H-indol-3-yl)methylene]-4,6-dihydroxy-1-benzofuran-3(2H)-one] | 9000 nM | > 10000 nM | 1040 nM | – |
| CN(C)c1cccc(-c2cccc3c2c(/C=C2\Oc4cc(O)cc(O)c4C2=O)cn3C)c1 [Example 398, (2Z)-2-({4-[3-(Dimethylamino)phenyl]-1-methyl-1H-indol-3-yl}methylene)-4,6-dihydroxy-1-benzofuran-3(2H)-one] | 111 nM | 5260 nM | 2760 nM | – |
| O=C1C(=Cc2c[nH]c3cccc(Br)c23)Oc2cc(O)cc(O)c21 [Example 174, 2-[(4-bromo-1H-indol-3-yl)methylene]-4,6-dihydroxy-1-benzofuran-3(2H)-one] | 7100 nM | > 10000 nM | 1510 nM | – |
| Cn1c(-c2cccc(F)c2)c(C=C2Oc3cc(O)cc(O)c3C2=O)c2ccccc21 [Example 197, 2-{[2-(3-fluorophenyl)-1-methyl-1H-indol-3-yl]methylene}-4,6-dihydroxy-1-benzofuran-3(2H)-one] | 280 nM | 9160 nM | 1100 nM | – |
| CCn1c(C)c(/C=C2\Oc3ccc(NC(=O)Nc4ccc(OCCCCN(C)C)cc4)cc3C2=O)c2cc(OC)ccc21 [Compound 668, 1-{4-[4-(dimethylamino)butoxy]phenyl}-3-{(2Z)-2-[(1-ethyl-5-methoxy-2-methyl-1H-indol-3-yl)methylidene]-3-oxo-2,3-dihydro-1-benzofuran-5-yl}urea] | 295 nM | 12.3 nM | 2.87 nM | – |
| CNC(=O)Nc1ccc2c(c1)C(=O)/C(=C/c1c(-c3nc(C(C)C)no3)n(CCN3CCN(C)CC3)c3ccc(OC)cc13)O2 [Compound 621, 1-[(2Z)-2-({5-methoxy-2-[3-(1-methylethyl)-1,2,4-oxadiazol-5-yl]-1-[2-(4-methylpiperazin-1-yl)ethyl]-1H-indol-3-yl}methylidene)-3-oxo-2,3-dihydro-1-benzofuran-5-yl]-3-methylurea] | 225 nM | – | 3.5 nM | 355 nM |
| CNC(=O)Nc1ccc2c(c1)C(=O)/C(=C/c1c(-c3ccc(CN(C)C)cc3)[nH]c3ccc(OC)cc13)O2 [Compound 624, 1-{(2Z)-2-[(2-{4-[(dimethylamino)methyl]phenyl}-5-methoxy-1H-indol-3-yl)methylidene]-3-oxo-2,3-dihydro-1-benzofuran-5-yl}-3-methylurea] | 57 nM | 23 nM | 2.1 nM | – |
| CNC(=O)Nc1cc2c(cc1C)O/C(=C\c1c(C)n(CCN3CCN(C)CC3)c3ccc(OC)cc13)C2=O [Compound 640, 1-[(2Z)-2-({5-methoxy-2-methyl-1-[2-(4-methylpiperazin-1-yl)ethyl]-1H-indol-3-yl}methylene)-6-methyl-3-oxo-2,3-dihydro-1-benzofuran-5-yl]-3-methylurea] | 1450 nM | 6040 nM | 488 nM | – |
| CNC(=O)Nc1ccc2c(c1)C(=O)/C(=C/c1c(-c3c(C)nn(CCOC)c3C)[nH]c3ccc(OC)cc13)O2 [Compound 709, 1-[(2Z)-2-({5-methoxy-2-[1-(2-methoxyethyl)-3,5-dimethyl-1H-pyrazol-4-yl]-1H-indol-3-yl}methylidene)-3-oxo-2,3-dihydro-1-benzofuran-5-yl]-3-methylurea] | 43 nM | 248 nM | 47 nM | – |
| N#CCCCn1cc(C=C2Oc3cc(O)cc(O)c3C2=O)c2c(O)cccc21 [Example 257, 4-{3-[(4,6-dihydroxy-3-oxo-1-benzofuran-2(3H)-ylidene)methyl]-4-hydroxy-1H-indol-1-yl}butanenitrile] | 12000 nM | 2240 nM | 180 nM | – |
| Cc1noc(C)c1-c1[nH]c2ccccc2c1C=C1Oc2cc(O)cc(O)c2C1=O [Example 204, 2-{[2-(3,5-dimethylisoxazol-4-yl)-1H-indol-3-yl]methylene}-4,6-dihydroxy-1-benzofuran-3(2H)-one] | 190 nM | 6430 nM | 1160 nM | – |
| CNC(=O)Nc1ccc2c(c1)O/C(=C\c1cn(CCCN(C)C)c3ccc(OC)cc13)C2=O [Example 406, 1-(2Z)-[2-({1-[3-(Dimethylamino)propyl]-5-methoxy-1H-indol-3-yl}methylene)-3-oxo-2,3-dihydro-1-benzofuran-6-yl]-3-methyl urea] | > 20000 nM | > 10000 nM | – | – |
| Cn1c(-c2cccc(O)c2)c(C=C2Oc3cc(O)cc(O)c3C2=O)c2ccccc21 [Example 192, 4,6-dihydroxy-2-{[2-(3-hydroxyphenyl)-1-methyl-1H-indol-3-yl]methylene}-1-benzofuran-3(2H)-one] | 390 nM | – | 2420 nM | – |
| O=C1C(=Cc2c(Br)[nH]c3ccccc23)Oc2cc(O)cc(O)c21 [Example 80, 2-[(2-bromo-1H-indol-3-yl)methylene]-4,6-dihydroxy-1-benzofuran-3(2H)-one] | 490 nM | – | > 10000 nM | – |
